This note sets out measurements from patent US7153876B2, “Malonamid and malonamic ester derivatives with antithrombotic activity, their preparation, and their use” (Sanofi-Aventis Deutschland GmbH, priority 2000, dated 2006).

In this assay the target is T1, human factor VIIa and TF (factor VIIa/TF) (Homo sapiens, UniProt P08709).
T1 construct: human factor VIIa and TF (5 nM and 10 nM, respective final concentration)
Kind of assay: Factor VIIa (FVIIa) chromogenic assay. Format: biochemical. The conditions noted are these: inhibition constant towards factor VIIa/TF activity; chromogenic substrate S-2288 500 μM; 25° C.; 15 minute preincubation; factor VIIa 5 nM, TF 10 nM. As to the method:
The ability of compounds of formula I to inhibit factor VIIa or other enzymes like factor Xa, thrombin, plasmin, or trypsin can be assessed by determining the concentration of the compound of formula I that inhibits enzyme activity by 50%, i.e., the IC50 value, which is related to the inhibition constant Ki. Purified enzymes are used in chromogenic assays. The concentration of inhibitor that causes a 50% decrease in the rate of substrate hydrolysis is determined by linear regression after plotting the relative rates of hydrolysis (compared to the uninhibited control) versus the log of the concentration of the compound of formula I. For calculating the inhibition constant Ki, the IC50 value is corrected for competition with substrate using the formula Ki=IC50/[1+(substrate concentration/Km)] wherein Km is the Michaelis-Menten constant (Chen and Prusoff, Biochem. Pharmacol. 22 (1973), 3099-3108; I. H. Segal, Enzyme Kinetics, 1975, John Wiley & Sons, New York, 100–125; which are incorporated herein by reference). Factor VIIa (FVIIa) Assay:
The inhibitory activity (expressed as inhibition constant Ki (FVIIa)) of compounds of formula I towards factor VIIa/TF activity was determined using a chromogenic assay essentially as described previously (J. A. Ostrem et al., Biochemistry 37 (1998) 1053–1059, which is incorporated herein by reference). Kinetic assays were conducted at 25° C. in half-area microtiter plates (Costar Corp., Cambridge, Mass.) using a kinetic plate reader (Molecular Devices Spectramax 250). A typical assay consisted of 25 μl human factor VIIa and TF (5 nM and 10 nM, respective final concentration) combined with 40 μl of inhibitor dilutions in 10% DMSO/TBS-PEG buffer (50 mM Tris, 15 mM NaCl, 5 mM CaCl2, 0.05% PEG 8000, pH 8.15). Following a 15 minute preincubation period, the assay was initiated by the addition of 35 μl of the chromogenic substrate S-2288 (D-IIe-Pro-Arg-p-nitroanilide, Pharmacia Hepar Inc., 500 μM final concentration).

T1 sequence (P08709 61-212 limits assumed): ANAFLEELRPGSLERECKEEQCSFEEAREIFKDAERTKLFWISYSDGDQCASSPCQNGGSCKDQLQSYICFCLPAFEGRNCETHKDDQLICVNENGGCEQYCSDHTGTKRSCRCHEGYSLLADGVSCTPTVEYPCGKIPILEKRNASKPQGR
T1 sequence (P08709 213-466 limits assumed): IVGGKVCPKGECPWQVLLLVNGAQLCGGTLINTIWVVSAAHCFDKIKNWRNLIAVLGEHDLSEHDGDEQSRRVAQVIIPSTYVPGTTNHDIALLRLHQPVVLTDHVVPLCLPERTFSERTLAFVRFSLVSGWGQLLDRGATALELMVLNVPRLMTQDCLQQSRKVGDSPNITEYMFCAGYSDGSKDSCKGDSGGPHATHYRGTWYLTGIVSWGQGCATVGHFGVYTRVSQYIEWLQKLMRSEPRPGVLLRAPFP
T1 sequence (P13726 33-295 partner): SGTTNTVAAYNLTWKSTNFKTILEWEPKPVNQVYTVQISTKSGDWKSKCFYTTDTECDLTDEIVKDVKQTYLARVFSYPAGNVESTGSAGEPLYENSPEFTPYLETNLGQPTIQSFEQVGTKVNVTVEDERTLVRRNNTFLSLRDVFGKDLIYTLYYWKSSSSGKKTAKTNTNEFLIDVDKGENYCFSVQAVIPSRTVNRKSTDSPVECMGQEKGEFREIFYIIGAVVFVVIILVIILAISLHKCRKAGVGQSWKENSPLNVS

`N=C(N)c1ccc(NC(=O)C(C(=O)OCc2ccccc2)c2ccccc2)cc1` (stereo not drawn) [Example 1, N-(4-Carbamimidoyl-Phenyl)-2-Phenyl-Malonamic Acid Benzyl Ester] gave a Ki of 14 µM. For `CC(NC(=O)C(C(=O)Nc1ccc(C(=N)N)cc1)c1ccccc1)c1ccc([N+](=O)[O-])cc1` (stereo not drawn) [Example 3, N-(4-Carbamimidoyl-Phenyl)-N′-[1-(4-Nitro-Phenyl)-Ethyl]-2-Phenyl-Malonamide, Formiate] the value was 0.198 µM. For `N#CC(NC(=O)C(C(=O)Nc1ccc(C(=N)N)cc1)c1ccccc1)c1ccccc1` (stereo not drawn) [Example 6] the value was 3.82 µM; for `COc1ccc2c(c1)C[C@@H](NC(=O)C(C(=O)Nc1ccc(C(=N)N)cc1)c1ccccc1)CC2` (stereo partly drawn) [Example 8], 7.12 µM. The figure for `C[C@H](NC(=O)C(C(=O)Nc1ccc(C(=N)N)cc1)c1ccccc1)c1ccc(Br)cc1` (stereo partly drawn) [Example 12] is 0.301 µM; for `N=C(N)c1ccc(NC(=O)C(C(=O)NCc2c(Cl)cccc2Oc2ccccc2)c2ccccc2)cc1` (stereo not drawn) [Example 17] it is 6.62 µM; for `C[C@H](NC(=O)C(C(=O)Nc1ccc(C(=N)N)cc1)c1ccccc1)c1cccc(Br)c1` (stereo partly drawn) [Example 23] it is 0.157 µM. With `COc1ccc([C@H](C)NC(=O)C(C(=O)Nc2ccc(C(=N)N)cc2)c2ccccc2)cc1` (stereo partly drawn) [Example 26], the inhibition constant (Ki) came out at 0.381 µM.

`N=C(N)c1ccc(NC(=O)C(C(=O)NCc2ccc(-c3csnn3)cc2)c2ccccc2)cc1` (stereo not drawn) [Example 28] showed a Ki of 6.02 µM.

On to `N=C(N)c1ccc(NC(=O)C(C(=O)NCc2cccc([N+](=O)[O-])c2)c2ccccc2)cc1` (stereo not drawn) [Example 35], for which the Ki was 3.01 µM.

`COc1ccc(CNC(=O)C(C(=O)Nc2ccc(C(=N)N)cc2)c2ccccc2)cc1OC` (stereo not drawn) [Example 38] had a Ki of 17.4 µM. `N=C(N)c1ccc(NC(=O)C(CCc2ccccc2)C(=O)NCc2ccccc2)cc1` (stereo not drawn) [Example 40] registered an inhibition constant (Ki) of 2.81 µM. The figure for `C[C@H](NC(=O)C(CCc1ccccc1)C(=O)Nc1ccc(C(=N)N)cc1)c1ccc2ccccc2c1` (stereo partly drawn) [Example 42] is 17.1 µM; for `C[C@H](NC(=O)C(C(=O)Nc1ccc(C(=N)N)cc1)c1ccccc1)c1ccc2ccccc2c1` (stereo partly drawn) [Example 43] it is 0.124 µM; for `C[C@H](NC(=O)CC(=O)Nc1ccc(C(=N)N)cc1)c1ccc2ccccc2c1` [Example 44] it is 0.376 µM.

The term Ki denotes a measure of affinity in units of concentration, obtained from inhibition or displacement.
